For orientation: Kd means the constant that tells how readily two partners part at equilibrium.

We go through seven molecules from ChEMBL document CHEMBL3991601, “The target landscape of clinical kinase drugs” (Science, 2017).

Assay [1] concerns the target Dual specificity tyrosine-phosphorylation-regulated kinase 1A (Homo sapiens, UniProt Q13627).
For another assay, the target named is Adenosine kinase (Homo sapiens, UniProt P55263).
Assay [2] concerns the target Serine/threonine-protein kinase B-raf (Homo sapiens, UniProt P15056).
Another assay addresses T1, Glycine--tRNA ligase (Homo sapiens, UniProt P41250).
T1 sequence (P41250 whole entry): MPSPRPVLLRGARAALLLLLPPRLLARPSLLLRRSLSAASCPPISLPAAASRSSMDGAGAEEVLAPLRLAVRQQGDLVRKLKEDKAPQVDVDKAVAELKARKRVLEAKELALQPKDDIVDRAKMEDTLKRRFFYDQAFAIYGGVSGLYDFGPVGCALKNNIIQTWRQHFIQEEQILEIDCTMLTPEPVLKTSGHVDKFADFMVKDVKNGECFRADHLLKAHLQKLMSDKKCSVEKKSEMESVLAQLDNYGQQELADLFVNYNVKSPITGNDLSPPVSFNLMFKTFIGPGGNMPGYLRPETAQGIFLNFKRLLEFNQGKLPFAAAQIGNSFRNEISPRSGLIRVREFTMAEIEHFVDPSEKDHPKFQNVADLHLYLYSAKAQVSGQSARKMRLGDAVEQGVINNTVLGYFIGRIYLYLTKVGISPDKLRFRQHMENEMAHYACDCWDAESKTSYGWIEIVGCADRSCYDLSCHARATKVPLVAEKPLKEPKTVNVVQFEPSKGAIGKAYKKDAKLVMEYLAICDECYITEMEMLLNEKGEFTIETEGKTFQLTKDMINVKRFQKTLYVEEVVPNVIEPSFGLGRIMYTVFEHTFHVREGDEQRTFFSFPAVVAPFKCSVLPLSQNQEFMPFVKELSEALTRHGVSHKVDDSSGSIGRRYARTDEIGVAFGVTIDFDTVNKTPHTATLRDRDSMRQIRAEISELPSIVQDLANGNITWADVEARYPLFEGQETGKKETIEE

The target in assay [3] is T2, cGMP-dependent protein kinase 1 (Homo sapiens, UniProt Q13976).
T2 sequence (Q13976 whole entry): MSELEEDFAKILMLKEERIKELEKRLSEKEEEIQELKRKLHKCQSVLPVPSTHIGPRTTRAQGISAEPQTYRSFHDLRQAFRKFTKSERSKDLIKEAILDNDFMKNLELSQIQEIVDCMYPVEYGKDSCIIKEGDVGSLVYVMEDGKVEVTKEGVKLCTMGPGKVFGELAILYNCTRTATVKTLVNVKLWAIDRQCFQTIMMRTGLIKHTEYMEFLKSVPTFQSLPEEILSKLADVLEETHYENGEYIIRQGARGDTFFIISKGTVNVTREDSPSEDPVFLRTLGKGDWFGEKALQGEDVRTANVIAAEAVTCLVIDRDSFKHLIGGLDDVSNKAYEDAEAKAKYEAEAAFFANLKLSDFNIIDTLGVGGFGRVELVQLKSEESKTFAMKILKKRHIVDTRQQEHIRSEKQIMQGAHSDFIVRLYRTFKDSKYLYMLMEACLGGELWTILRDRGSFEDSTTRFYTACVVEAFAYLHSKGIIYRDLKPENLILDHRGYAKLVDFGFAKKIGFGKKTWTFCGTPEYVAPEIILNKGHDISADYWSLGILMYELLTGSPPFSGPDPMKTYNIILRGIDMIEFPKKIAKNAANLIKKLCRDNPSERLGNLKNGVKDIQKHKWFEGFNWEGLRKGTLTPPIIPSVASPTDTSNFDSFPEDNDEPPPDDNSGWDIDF

Assay [4] deals with Ribosomal protein S6 kinase alpha-1 (Homo sapiens, UniProt Q15418).
Chain of Ribosomal protein S6 kinase alpha-1 (Q15418 whole entry): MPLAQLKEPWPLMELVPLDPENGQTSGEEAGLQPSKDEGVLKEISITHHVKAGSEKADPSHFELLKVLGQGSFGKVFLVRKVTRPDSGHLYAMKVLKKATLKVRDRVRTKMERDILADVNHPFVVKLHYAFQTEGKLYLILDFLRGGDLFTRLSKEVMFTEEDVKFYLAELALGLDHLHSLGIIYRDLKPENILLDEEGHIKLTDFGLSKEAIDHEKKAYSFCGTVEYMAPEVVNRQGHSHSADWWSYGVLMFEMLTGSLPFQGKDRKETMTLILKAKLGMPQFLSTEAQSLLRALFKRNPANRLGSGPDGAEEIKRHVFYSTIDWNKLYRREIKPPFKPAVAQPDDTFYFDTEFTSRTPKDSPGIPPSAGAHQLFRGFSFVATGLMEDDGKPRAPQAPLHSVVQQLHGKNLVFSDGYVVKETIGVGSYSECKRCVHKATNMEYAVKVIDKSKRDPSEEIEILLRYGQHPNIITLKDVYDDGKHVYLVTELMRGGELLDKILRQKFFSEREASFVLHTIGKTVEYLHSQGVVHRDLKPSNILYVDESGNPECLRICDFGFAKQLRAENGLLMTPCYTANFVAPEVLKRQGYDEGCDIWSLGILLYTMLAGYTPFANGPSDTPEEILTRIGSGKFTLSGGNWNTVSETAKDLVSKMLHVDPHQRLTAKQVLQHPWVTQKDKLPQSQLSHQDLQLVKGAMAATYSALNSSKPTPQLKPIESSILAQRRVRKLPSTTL
A further assay addresses Midasin (Homo sapiens, UniProt Q9NU22).
Assay [5] deals with T3, Mitogen-activated protein kinase 15 (Homo sapiens, UniProt Q8TD08).
T3 sequence (Q8TD08 whole entry): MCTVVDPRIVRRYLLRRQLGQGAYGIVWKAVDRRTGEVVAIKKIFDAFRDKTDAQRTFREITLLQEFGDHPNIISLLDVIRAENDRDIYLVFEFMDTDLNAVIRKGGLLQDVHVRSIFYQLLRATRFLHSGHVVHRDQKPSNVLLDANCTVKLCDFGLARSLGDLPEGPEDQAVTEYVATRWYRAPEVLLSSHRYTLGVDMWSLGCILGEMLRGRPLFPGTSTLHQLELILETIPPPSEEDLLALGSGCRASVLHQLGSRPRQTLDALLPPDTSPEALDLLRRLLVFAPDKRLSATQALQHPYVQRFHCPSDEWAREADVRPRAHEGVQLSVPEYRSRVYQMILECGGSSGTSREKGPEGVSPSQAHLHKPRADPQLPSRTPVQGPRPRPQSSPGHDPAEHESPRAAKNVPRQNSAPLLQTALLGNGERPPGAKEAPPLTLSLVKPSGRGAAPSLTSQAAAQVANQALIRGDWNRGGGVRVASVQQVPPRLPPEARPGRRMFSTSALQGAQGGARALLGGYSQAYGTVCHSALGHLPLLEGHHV

Assay [6] addresses Mitogen-activated protein kinase 3 (Homo sapiens, UniProt P27361).
The target of assay [7] is Fibroblast growth factor receptor 1 (Homo sapiens, UniProt P11362).
Chain of Fibroblast growth factor receptor 1 (P11362 whole entry): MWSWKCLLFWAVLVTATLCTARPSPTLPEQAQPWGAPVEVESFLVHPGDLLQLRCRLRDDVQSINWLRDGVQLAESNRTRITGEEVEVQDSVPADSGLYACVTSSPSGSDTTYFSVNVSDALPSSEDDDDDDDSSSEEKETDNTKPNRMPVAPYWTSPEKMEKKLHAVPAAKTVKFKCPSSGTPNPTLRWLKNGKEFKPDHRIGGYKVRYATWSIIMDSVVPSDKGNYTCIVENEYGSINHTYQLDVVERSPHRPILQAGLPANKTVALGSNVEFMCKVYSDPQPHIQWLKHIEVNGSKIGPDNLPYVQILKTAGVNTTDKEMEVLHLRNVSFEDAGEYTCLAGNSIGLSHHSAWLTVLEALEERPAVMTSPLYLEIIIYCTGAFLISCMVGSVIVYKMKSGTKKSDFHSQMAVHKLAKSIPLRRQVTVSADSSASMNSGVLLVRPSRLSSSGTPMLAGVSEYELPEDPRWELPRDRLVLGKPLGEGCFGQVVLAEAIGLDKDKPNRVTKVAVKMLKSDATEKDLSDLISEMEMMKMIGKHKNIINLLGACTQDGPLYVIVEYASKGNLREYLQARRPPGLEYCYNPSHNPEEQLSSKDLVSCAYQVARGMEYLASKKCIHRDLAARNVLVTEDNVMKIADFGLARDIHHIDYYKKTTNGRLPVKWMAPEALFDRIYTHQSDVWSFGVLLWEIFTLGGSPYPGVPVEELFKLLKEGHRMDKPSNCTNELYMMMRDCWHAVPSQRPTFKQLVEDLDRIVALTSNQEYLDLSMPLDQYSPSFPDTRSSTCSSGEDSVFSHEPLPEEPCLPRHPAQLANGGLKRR

SMILES strings stand for the structures. The source made the active and inactive calls.
Also: in the data inactive means no Kd found up to 30 µM.

Chain of Adenosine kinase (P55263 whole entry): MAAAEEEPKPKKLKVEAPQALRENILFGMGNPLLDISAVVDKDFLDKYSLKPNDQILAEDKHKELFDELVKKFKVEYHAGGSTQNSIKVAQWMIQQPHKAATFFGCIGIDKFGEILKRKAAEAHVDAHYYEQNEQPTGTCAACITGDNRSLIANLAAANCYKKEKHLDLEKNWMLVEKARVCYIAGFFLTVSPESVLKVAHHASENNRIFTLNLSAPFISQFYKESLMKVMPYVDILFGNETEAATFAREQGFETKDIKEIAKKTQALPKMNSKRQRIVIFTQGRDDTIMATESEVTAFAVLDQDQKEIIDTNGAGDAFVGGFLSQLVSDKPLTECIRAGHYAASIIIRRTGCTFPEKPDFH
Chain of Serine/threonine-protein kinase B-raf (P15056 whole entry): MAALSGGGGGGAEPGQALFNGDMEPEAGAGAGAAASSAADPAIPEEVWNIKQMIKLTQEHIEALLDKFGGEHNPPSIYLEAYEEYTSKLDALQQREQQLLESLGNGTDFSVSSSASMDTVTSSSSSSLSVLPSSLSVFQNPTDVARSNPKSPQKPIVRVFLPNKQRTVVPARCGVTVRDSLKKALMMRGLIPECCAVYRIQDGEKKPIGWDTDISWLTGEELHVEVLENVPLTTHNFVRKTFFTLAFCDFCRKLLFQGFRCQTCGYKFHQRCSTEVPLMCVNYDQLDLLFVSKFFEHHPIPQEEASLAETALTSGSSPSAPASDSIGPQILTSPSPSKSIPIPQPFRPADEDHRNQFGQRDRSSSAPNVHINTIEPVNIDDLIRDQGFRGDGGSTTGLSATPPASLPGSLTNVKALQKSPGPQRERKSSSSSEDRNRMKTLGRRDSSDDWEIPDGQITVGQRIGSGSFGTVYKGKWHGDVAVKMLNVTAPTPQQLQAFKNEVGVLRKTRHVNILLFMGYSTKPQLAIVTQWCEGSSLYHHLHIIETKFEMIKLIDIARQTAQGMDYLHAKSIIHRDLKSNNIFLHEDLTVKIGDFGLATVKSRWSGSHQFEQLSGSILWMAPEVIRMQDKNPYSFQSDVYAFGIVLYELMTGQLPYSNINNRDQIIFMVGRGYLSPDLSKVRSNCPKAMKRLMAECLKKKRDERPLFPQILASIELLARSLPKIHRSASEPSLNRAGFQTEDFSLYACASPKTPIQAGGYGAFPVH
Chain of Mitogen-activated protein kinase 3 (P27361 whole entry): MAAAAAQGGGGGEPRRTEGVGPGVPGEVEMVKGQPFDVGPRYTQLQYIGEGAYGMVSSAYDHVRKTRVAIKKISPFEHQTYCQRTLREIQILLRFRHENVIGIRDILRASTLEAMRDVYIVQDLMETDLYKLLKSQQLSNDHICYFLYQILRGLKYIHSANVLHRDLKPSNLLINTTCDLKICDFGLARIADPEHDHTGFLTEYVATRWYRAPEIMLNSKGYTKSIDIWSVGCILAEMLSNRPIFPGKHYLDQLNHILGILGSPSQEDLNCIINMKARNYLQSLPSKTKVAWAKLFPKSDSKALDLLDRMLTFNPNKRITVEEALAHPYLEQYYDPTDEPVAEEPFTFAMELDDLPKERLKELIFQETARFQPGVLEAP

Regarding `COc1cc2nccc(Oc3ccc(NC(=O)C4(C(=O)Nc5ccc(F)cc5)CC4)cc3)c2cc1OC` [CABOZANTINIB], the Kd (in [1]; on Adenosine kinase; in [2]; at Glycine--tRNA ligase; in assay [3]; in assay [4]) was > 30 µM (inactive) in each case. For the same molecule, the Kd (at Midasin; in [5]; in assay [6]; in assay [7]) was > 30 µM (inactive) throughout.
For the molecule `Cc1c(Cn2c(C)nc3c(C(=O)O)cc(N4CCOCC4)cc32)cccc1C(F)(F)F` [GSK-2636771], the Kd (in assay [1]; at Adenosine kinase; in assay [2]; at Glycine--tRNA ligase; in assay [3]; in assay [4]) was > 30 µM (inactive) throughout. The Kd (on Midasin; in [5]; in [6]; in [7]) was > 30 µM (inactive) each time.
For the molecule `Cc1cc(Nc2nc(N[C@@H](C)c3ncc(F)cn3)ncc2Cl)n[nH]1` [AZD-1480], the Kd (in assay [1]; at Adenosine kinase; in [2]; at Glycine--tRNA ligase; in assay [3]; in assay [4]) was > 30 µM (inactive) throughout. Besides, the Kd was > 30 µM (inactive) at Midasin, > 30 µM (inactive) in assay [5], > 30 µM (inactive) in assay [6] and 0.777 µM (active) in assay [7].
`CNC(=O)c1cccc(-c2ccc3c(N4CCOC[C@@H]4C)nc(N4CCOC[C@@H]4C)nc3n2)c1` [VISTUSERTIB]: the Kd (in [1]; on Adenosine kinase; in assay [2]; at Glycine--tRNA ligase; in assay [3]; in assay [4]) was > 30 µM (inactive) throughout. The Kd (on Midasin; in assay [5]; in [6]; in assay [7]) was > 30 µM (inactive) each time.
With `O=C(NC[C@H](O)CO)c1ccncc1Nc1ccc(I)cc1F` [PIMASERTIB], the Kd (in [1]; on Adenosine kinase; in [2]; on Glycine--tRNA ligase; in assay [3]; in [4]) was > 30 µM (inactive) throughout. The Kd (on Midasin; in [5]; in assay [6]; in assay [7]) was > 30 µM (inactive) each time.
As to `COc1ccc2c(OCc3nnc4ccc(-c5ccccc5)nn34)ccnc2c1` [AMG-208], the Kd (in assay [1]; on Adenosine kinase; in assay [2]; at Glycine--tRNA ligase; in assay [3]; in assay [4]) was > 30 µM (inactive) in each case. The Kd (on Midasin; in assay [5]; in assay [6]; in [7]) was > 30 µM (inactive) each time.
Consider `COc1ccc(-c2ccc3ncc4c(c3c2)n(-c2ccc(N3CCNCC3)c(C(F)(F)F)c2)c(=O)n4C)cn1` [BGT-226 FREE BASE], for which the Kd is 0.922 µM (active) in assay [1]; > 30 µM (inactive) at Adenosine kinase; > 30 µM (inactive) in assay [2]; > 30 µM (inactive) at Glycine--tRNA ligase; > 30 µM (inactive) in assay [3]; > 30 µM (inactive) in [4]. The Kd (on Midasin; in assay [5]; in assay [6]; in assay [7]) was > 30 µM (inactive) in each case.
